Assay results taken from paper PMC8733726, “Dioctanoyl Ultrashort Tetrabasic β-Peptides Sensitize Multidrug-Resistant Gram-Negative Bacteria to Novobiocin and Rifampicin” (Frontiers in Microbiology, 2021).
Converted amounts (≈) assume the structure as drawn. Where two headings read alike, the source gives them in different places.

Key:
[1] = tested on: wild-type P. aeruginosa PAO1; assay: microbe, parasite or virus in culture; type: cell-based, Pseudomonas aeruginosa; settings: PAO1; for MICcombo: antibiotic with dUSTBβP 3 at 8 μg/mL; for MIC: Pseudomonas aeruginosa, 18 h, antibiotic alone (Supplementary Table 7), read-out: MICantibiotic
Source text: (§1) Overnight-grown bacterial culture diluted in saline to 0.5 McFarland turbidity was successively diluted 1:50 in MHB to achieve a final concentration of 5 × 10^5 CFU/mL for inoculation. The antibiotic and adjuvant were serially diluted 2-fold along the x-axis and y-axis, respectively, resulting in varying concentrations of both agents in each well. […] Confirmation of turbidity was done using an EMax Plus microplate reader (Molecular Devices, United States) at a wavelength of 590 nm. Wells comprising MHB alone or in the presence of bacterial cells were used as negative or positive controls, respectively. Fractional inhibitory concentration index (FICI) is determined by adding the FICs of both antibiotic and adjuvant. The FIC of the antibiotic is calculated by dividing the MIC of the antibiotic in the presence of the adjuvant by the MIC of the antibiotic alone. Similarly, the FIC of the adjuvant is calculated by dividing the MIC of the adjuvant in the presence of the antibiotic by the MIC of the adjuvant alone.

[2] = tested on: wild-type A. baumannii ATCC 17978; assay: Checkerboard assay; type: cell-based, Acinetobacter baumannii; settings: ATCC 17978; for MICcombo: antibiotic with dUSTBβP 3 at 8 μg/mL; for MIC: Acinetobacter baumannii, ATCC17978, 18 h, antibiotic alone (Supplementary Table 7), read-out: MICantibiotic
Source text: as §1

[3] = tested on: wild-type E. coli ATCC 25922; assay: microbe, parasite or virus in culture; type: cell-based, Escherichia coli; settings: ATCC 25922; for MICcombo: antibiotic with dUSTBβP 3 at 8 μg/mL; for MIC: Escherichia coli, ATCC25922, 18 h, antibiotic alone (Supplementary Table 7), read-out: MICantibiotic
Procedure: The adjuvant activities of dUSTBβPs were evaluated using checkerboard assay as previously described ([Berry et al., 2019]). Overnight-grown bacterial culture diluted in saline to 0.5 McFarland turbidity was successively diluted 1:50 in MHB to achieve a final concentration of 5 × 10^5 CFU/mL for inoculation. The antibiotic and adjuvant were serially diluted 2-fold along the x-axis and y-axis, respectively, resulting in varying concentrations of both agents in each well. Subsequently, the 96-well plate was incubated with equal volumes of bacterial inoculum at 37°C for 18 h. Confirmation of turbidity was done using an EMax Plus microplate reader (Molecular Devices, United States) at a wavelength of 590 nm. Wells comprising MHB alone or in the presence of bacterial cells were used as negative or positive controls, respectively. Fractional inhibitory concentration index (FICI) is determined by adding the FICs of both antibiotic and adjuvant. The FIC of the antibiotic is calculated by dividing the MIC of the antibiotic in the presence of the adjuvant by the MIC of the antibiotic alone. Similarly, the FIC of the adjuvant is calculated by dividing the MIC of the adjuvant in the presence of the antibiotic by the MIC of the adjuvant alone. FICI ≤ 0.5, 0.5 < x ≤ 4, and >4 were deemed synergistic, additive, and antagonistic, respectively ([Meletiadis et al., 2010]).

[4] = tested on: MDR P. aeruginosa clinical isolates; assay: Resistance phenotype (MICs of antibiotics) of MDR clinical isolates; type: cell-based, Pseudomonas aeruginosa; settings: Pseudomonas aeruginosa
[5] = tested on: MDR A. baumannii clinical isolates; assay: as above; type: cell-based, Acinetobacter baumannii; settings: Acinetobacter baumannii
[6] = tested on: MDR E. coli clinical isolates; assay: as above; type: cell-based, Escherichia coli; settings: Escherichia coli, read-out: MIC
[7] = tested on: MDR K. pneumoniae clinical isolates; assay: as above; type: cell-based, Klebsiella pneumoniae; settings: Klebsiella pneumoniae
[8] = tested on: MDR E. cloacae clinical isolates; assay: as above; type: cell-based, Enterobacter cloacae; settings: Enterobacter cloacae, read-out: MIC

MICcombo [1] [µg/mL]	MIC [1] [µg/mL]	MICcombo [2] [µg/mL]	MIC [2] [µg/mL]	MICcombo [3] [µg/mL]	MIC [3] [µg/mL]	MIC ([4]; 259-96196, read-out: MIC) [µg/mL]	MIC ([4]; 262-101856, read-out: MIC) [µg/mL]	MIC ([4]; 264-104354, read-out: MIC) [µg/mL]	MIC ([4]; 91433, read-out: MIC) [µg/mL]	MIC ([6]; 94393 (mcr-1 +)) [µg/mL]	MIC ([6]; 94474 (mcr-1 +)) [µg/mL]	MIC [6]; 107115 [µg/mL]	MIC ([7]; 113250, read-out: MIC) [µg/mL]	MIC ([7]; 113254, read-out: MIC) [µg/mL]	MIC ([7]; 116381, read-out: MIC) [µg/mL]	MIC [8]; 117029 [µg/mL]	MIC [8]; 118564 [µg/mL]	MIC [8]; 121187 [µg/mL]	Compound	MIC ([5]; LAC-4, read-out: MIC) [µg/mL]	further results
0.5	2 (≈ 4.98 µM)	> 0.125	> 0.125	0.001	0.016	> 16	> 16	> 16	16 (≈ 39.9 µM)	1 (≈ 2.49 µM)	16 (≈ 39.9 µM)	16 (≈ 39.9 µM)	≤ 0.06	≤ 0.06	> 16	≤ 0.06	0.12 (≈ 0.299 µM)	1 (≈ 2.49 µM)	COc1c(N2C[C@@H]3CCCN[C@@H]3C2)c(F)cc2c(=O)c(C(=O)O)cn(C3CC3)c12 [Moxifloxacin]	–	MIC ([5]; 110193, read-out: MIC): ≤ 1 µg/mL; MIC ([5]; AB027, read-out: MIC): 8 µg/mL (≈ 19.9 µM); MIC ([5]; AB031, read-out: MIC): 0.12 µg/mL (≈ 0.299 µM)
256	1020 (≈ 2710 µM)	4	256	0.5	64	–	–	–	–	–	–	–	–	–	–	–	–	–	C=C[C@]1(C)C[C@@H](OC(=O)CO)[C@]2(C)[C@H](C)CC[C@]3(CCC(=O)[C@H]32)[C@@H](C)[C@@H]1O [Pleuromutilin]	–	–
32	128 (≈ 441 µM)	> 128	> 128	64	512	–	–	–	–	–	–	–	–	–	–	–	–	–	COc1cc(Cc2cnc(N)nc2N)cc(OC)c1OC [Trimethoprim]	–	–
4	4 (≈ 7.73 µM)	32	> 128	0.125	2	–	–	–	–	–	–	–	–	–	–	–	–	–	CCN1CCN(C(=O)N[C@@H](C(=O)N[C@@H]2C(=O)N3[C@@H]2SC(C)(C)[C@@H]3C(=O)O)c2ccccc2)C(=O)C1=O [Piperacillin]	–	–

Further lines, the molecule ahead of its results:

Compound	MICcombo [1] [µg/mL]	MIC [1] [µg/mL]	MICcombo [2] [µg/mL]	MIC [2] [µg/mL]	MICcombo [3] [µg/mL]	MIC [3] [µg/mL]	MIC ([4]; 259-96196, read-out: MIC) [µg/mL]	MIC ([4]; 262-101856, read-out: MIC) [µg/mL]	MIC ([4]; 264-104354, read-out: MIC) [µg/mL]	MIC ([4]; 91433, read-out: MIC) [µg/mL]	MIC ([6]; 94393 (mcr-1 +)) [µg/mL]	MIC ([6]; 94474 (mcr-1 +)) [µg/mL]	MIC [6]; 107115 [µg/mL]	MIC ([7]; 113250, read-out: MIC) [µg/mL]	MIC ([7]; 113254, read-out: MIC) [µg/mL]	MIC ([7]; 116381, read-out: MIC) [µg/mL]	MIC [8]; 117029 [µg/mL]	MIC [8]; 118564 [µg/mL]	MIC [8]; 121187 [µg/mL]	MIC ([5]; LAC-4, read-out: MIC) [µg/mL]	further results
CNC(C)C1CCC(N)C(OC2C(N)CC(N)C(OC3OCC(C)(O)C(NC)C3O)C2O)O1 (centres unmarked) [Gentamicin]	2	2 (≈ 4.19 µM)	> 1	> 1	1	2	> 32	> 32	> 32	32 (≈ 67 µM)	≤ 0.5	16 (≈ 33.5 µM)	> 32	≤ 0.5	≤ 0.5	≤ 0.5	≤ 0.5	1 (≈ 2.09 µM)	> 32	> 4	MIC ([5]; AB027, read-out: MIC): 32 µg/mL (≈ 67 µM); MIC ([5]; AB031, read-out: MIC): < 0.5 µg/mL
C[C@H]1[C@H](NC(=O)/C(=N\OC(C)(C)C(=O)O)c2csc(N)n2)C(=O)N1S(=O)(=O)O [Aztreonam]	4	4 (≈ 9.19 µM)	32	64	0.063	0.25	32 (≈ 73.5 µM)	32 (≈ 73.5 µM)	64 (≈ 147 µM)	–	≤ 0.12	≤ 0.12	> 64	≤ 0.12	≤ 0.12	16 (≈ 36.7 µM)	≤ 0.12	≤ 0.12	≤ 0.12	–	MIC ([4]; 114228, read-out: MIC): 32 µg/mL (≈ 73.5 µM)
CC[C@H]1OC(=O)[C@H](C)[C@@H](O[C@H]2C[C@@](C)(OC)[C@@H](O)[C@H](C)O2)[C@H](C)[C@@H](O[C@@H]2O[C@H](C)C[C@H](N(C)C)[C@H]2O)[C@](C)(O)C[C@@H](C)C(=O)[C@H](C)[C@@H](O)[C@]1(C)O [Erythromycin]	–	256 (≈ 349 µM)	1	16	0.25	64	–	–	–	–	–	–	–	–	–	–	–	–	–	–	–
CN(C)c1ccc(O)c2c1C[C@H]1C[C@H]3[C@H](N(C)C)C(O)=C(C(N)=O)C(=O)[C@@]3(O)C(O)=C1C2=O [Minocycline]	1	16 (≈ 35 µM)	0.25	0.5	0.063	0.5	32 (≈ 69.9 µM)	64 (≈ 140 µM)	32 (≈ 69.9 µM)	16 (≈ 35 µM)	2 (≈ 4.37 µM)	64 (≈ 140 µM)	32 (≈ 69.9 µM)	2 (≈ 4.37 µM)	2 (≈ 4.37 µM)	64 (≈ 140 µM)	32 (≈ 69.9 µM)	–	–	4 (≈ 8.74 µM)	MIC ([4]; 114228, read-out: MIC): 32 µg/mL (≈ 69.9 µM); MIC [5]: 0.125 µg/mL (≈ 0.273 µM); MIC ([5]; 110193, read-out: MIC): 1 µg/mL (≈ 2.19 µM); MIC ([5]; AB027, read-out: MIC): 0.25 µg/mL (≈ 0.546 µM); MIC ([5]; AB031, read-out: MIC): 0.25 µg/mL (≈ 0.546 µM)
NC[C@H]1O[C@H](O[C@H]2[C@H](O)[C@@H](O[C@H]3O[C@H](CO)[C@@H](O)[C@H](N)[C@H]3O)[C@H](N)C[C@@H]2N)[C@H](N)C[C@@H]1O [Tobramycin]	1	1 (≈ 2.14 µM)	> 1	> 1	1	2	256 (≈ 548 µM)	1020 (≈ 2190 µM)	–	16 (≈ 34.2 µM)	≤ 0.5	32 (≈ 68.4 µM)	8 (≈ 17.1 µM)	≤ 0.5	≤ 0.5	4 (≈ 8.56 µM)	2 (≈ 4.28 µM)	1 (≈ 2.14 µM)	32 (≈ 68.4 µM)	> 4	MIC ([4]; 264-104354): 128 µg/mL (≈ 274 µM); MIC ([4]; 114228, read-out: MIC): 2 µg/mL (≈ 4.28 µM)
C[C@H]1c2cccc(O)c2C(=O)C2=C(O)[C@]3(O)C(=O)C(C(N)=O)=C(O)[C@@H](N(C)C)[C@@H]3[C@@H](O)[C@@H]21 [Doxycycline]	0.5	8 (≈ 18 µM)	0.25	0.25	0.25	1	32 (≈ 72 µM)	1020 (≈ 2300 µM)	64 (≈ 144 µM)	32 (≈ 72 µM)	4 (≈ 9 µM)	> 32	> 32	2 (≈ 4.5 µM)	128 (≈ 288 µM)	1 (≈ 2.25 µM)	> 32	4 (≈ 9 µM)	> 32	< 4	MIC ([4]; 114228, read-out: MIC): 16 µg/mL (≈ 36 µM)
CCC[C@@H]1C[C@@H](C(=O)N[C@@H]([C@H]2O[C@H](SC)[C@H](O)[C@@H](O)[C@H]2O)[C@H](C)Cl)N(C)C1 [Clindamycin]	128	2050 (≈ 4820 µM)	64	512	4	64	–	–	–	–	–	–	–	–	–	–	–	–	–	–	–
CC(=O)NC[C@H]1CN(c2ccc(N3CCOCC3)c(F)c2)C(=O)O1 [Linezolid]	256	1020 (≈ 3040 µM)	64	512	16	256	–	–	–	–	–	–	–	–	–	–	–	–	–	–	–
C[C@H]1COc2c(N3CCN(C)CC3)c(F)cc3c(=O)c(C(=O)O)cn1c23 [Levofloxacin]	0.25	0.5 (≈ 1.38 µM)	0.25	0.25	0.002	0.008	256 (≈ 708 µM)	64 (≈ 177 µM)	64 (≈ 177 µM)	–	1 (≈ 2.77 µM)	32 (≈ 88.6 µM)	32 (≈ 88.6 µM)	–	–	–	–	–	–	2 (≈ 5.53 µM)	MIC ([5]; 110193, read-out: MIC): ≤ 1 µg/mL; MIC ([5]; AB027, read-out: MIC): 8 µg/mL (≈ 22.1 µM); MIC ([5]; AB031, read-out: MIC): 0.25 µg/mL (≈ 0.692 µM); MIC [7]; 113250: 0.125 µg/mL (≈ 0.346 µM); MIC [7]; 113254: 0.0625 µg/mL (≈ 0.173 µM); MIC [7]; 116381: 128 µg/mL (≈ 354 µM)
